The test system of the experiment is PD-1-overexpressing Jurkat cells. In words: Small molecule screen: IL2 secretion (AlphaLISA) from stimulated PD-1-overexpressing Jurkat cells. In kind it is cell-based, human. As to conditions: 3.3 μM compound; for Zscore_1 / Zscore_2: IL2 level, α-CD3/α-CD28/α-PD-1 beads; for Zscore_1: replicate 1; for Zscore_2: replicate 2; for Zscore_AVG: average of replicate Z scores. Here is the method:
PD-1-overexpressing Jurkat cells were plated at a concentration of 100,000 cells/well in a total volume of 80 μl. […] Dynabeads conjugated to α-CD3, α-CD28, and α-PD-1 antibodies were added in 20 for a final assay volume of 100 with a final compound concentration of 3.3 μM and an 8:1 bead:cell ratio. Beads were conjugated to α-CD3/α-CD28/control IgG and added to wells containing DMSO-treated cells as a positive control, while beads conjugated to α-CD3/α-CD28/α-PD1 were added to wells containing DMSO-treated cells as a negative control. Supernatants from each well were analyzed for IL2 levels by AlphaLISA (Perkin Elmers) according to the manufacturer's protocol. Average and standard deviation values were calculated from the PD-1 controls (DMSO-treated cells stimulated with α-CD3/α-CD28/α-PD-1 beads); hits were defined as compounds scoring at least 3 standard deviations from the mean of the controls.
In addition to known negative regulators of IL-2 production (e.g. glycogen synthase kinase-3α/β (GSK3α/β) (24,25)), this screen identified cyclin-dependent kinases 4 and 6 inhibitors (CDK4/6i) as top hits (Table 1).
For orientation: In Alpha technology, singlet oxygen from a donor bead excites a nearby acceptor bead.

`CC[C@H](CO)Nc1nc(NCc2ccc(-c3ccccn3)cc2)c2ncn(C(C)C)c2n1` (single isomer, unassigned) [CR8, (R)-Isomer] registered a Zscore_1 of −9.662, a Zscore_2 of −6.961 and a Zscore_AVG of −8.311.

On to `CC[C@@H](CO)Nc1nc(NCc2ccc(-c3ccccn3)cc2)c2ncn(C(C)C)c2n1` (single isomer, unassigned) [CR8, (S)-Isomer], for which the Zscore_1 is −10.2, the Zscore_2 is −10.59 and the Zscore_AVG is given as −10.39.

Turning to `CC[C@@H](CO)Nc1nc(NCc2ccccc2)c2ncn(C(C)C)c2n1` (single isomer, unassigned) [Roscovitine, (S)-Isomer], the Zscore_1 was −2.928, the Zscore_2 is reported as −1.279 and the Zscore_AVG is recorded as −2.103.

`O=C1Cc2c([nH]c3ccc(Br)cc23)-c2ncccc2N1` [1-Azakenpaullone] came in with a Zscore_1 of 0.418, a Zscore_2 of 1.913 and a Zscore_AVG of 1.165.

Compound `Cc1ncc2ccccc2c1C#N` [4-Cyano-3-methylisoquinoline] came in with a Zscore_1 of −0.7566, a Zscore_2 of 0.1385 and a Zscore_AVG of −0.3091.

The compound `Nc1ncnc2c1c(I)cn2[C@@H]1O[C@H](CO)[C@@H](O)[C@H]1O` [5-Iodotubercidin] showed a Zscore_1 of −4.799, a Zscore_2 of −6.213 and a Zscore_AVG of −5.506.

`N#CC(C#N)=C(N)/C(C#N)=C/c1ccc(O)cc1` [AG 112] came in with a Zscore_1 of −1.54, a Zscore_2 of −3.816 and a Zscore_AVG of −2.678.

For the compound `N#C/C(=C/c1ccc(O)c(O)c1)C(=O)NCc1ccccc1` [AG 490], the Zscore_1 is on record as −2.645, the Zscore_2 worked out at 0.2008 and the Zscore_AVG is −1.222.

As for `CC(C)(C)c1cc(C=C(C#N)C#N)cc(Br)c1O` [AG 1024], the Zscore_1 is reported as 0.3395, the Zscore_2 turned out to be 0.506 and the Zscore_AVG was 0.4228.

Turning to `Cc1cc2ncc(-c3ccccc3)nc2cc1C` [AG 1295], the Zscore_1 was −0.2372, the Zscore_2 was −3.097 and the Zscore_AVG was −1.667.

Consider `COc1cc2ncc(-c3ccccc3)nc2cc1OC` [AG 1296], for which the Zscore_1 was 0.5275, the Zscore_2 is reported as −0.8562 and the Zscore_AVG was −0.1643.

In the case of `COc1cc2ncnc(Nc3cccc(Cl)c3)c2cc1OC` [AG 1478], the Zscore_1 is −1.129, the Zscore_2 is given as −1.216 and the Zscore_AVG was −1.173.

Compound `Cc1nc2cc3nc(-c4cccs4)cnc3cc2n1C` [AGL 2043] came in with a Zscore_1 of −0.2488, a Zscore_2 of 1.253 and a Zscore_AVG of 0.5019.

`c1cc(-c2cnn3cc(-c4ccc(OCCN5CCCCC5)cc4)cnc23)ccn1` [AMPK Inhibitor, Compound C] came in with a Zscore_1 of −2.877, a Zscore_2 of 1.296 and a Zscore_AVG of −0.7902.

For `O=c1cc(-c2cccc3c2Sc2ccccc2S3)oc(N2CCOCC2)c1` [ATM Kinase Inhibitor], the Zscore_1 was 1.379, the Zscore_2 is reported as 4.382 and the Zscore_AVG turned out to be 2.881.

For the compound `O=C(NC(NC(=S)Nc1ccc(F)c([N+](=O)[O-])c1)C(Cl)(Cl)Cl)C(c1ccccc1)c1ccccc1` (stereo not drawn) [ATM/ATR Kinase Inhibitor], the Zscore_1 was −1.798, the Zscore_2 is recorded as −1.073 and the Zscore_AVG is given as −1.436.

`Cl.Cl.Nc1ncnc2nc(-c3ccc(N4CCOCC4)nc3)cc(-c3cccc(Br)c3)c12` [Adenosine Kinase Inhibitor] yielded a Zscore_1 of 0.3983, a Zscore_2 of 0.5922 and a Zscore_AVG of 0.4953.
